# Publication PMC8740768 (Proceedings of the National Academy of Sciences of the …, 2021)
# “Also recorded” adds a separate entry of the source. Where two headings read alike, the source gives them in different places.
# B1: protease-associated domain of vacuolar sorting receptor isoform 1 (VSR1-PA) (domain or fragment, Arabidopsis thaliana, UniProt P93026 20-182, looked up)
# chain: RFVVEKNNLKVTSPDSIKGIYECAIGNFGVPQYGGTLVGTVVYPKSNQKACKSYSDFDISFKSKPGRLPTFVLIDRGDCYFTLKAWIAQQAGAAAILVADSKAEPLITMDTPEEDKSDADYLQNITIPSALITKTLGDSIKSALSGGDMVNMKLDWTESVPHP
# B2: C-terminal peptide of CRU1 (YRVAAA) (peptide)
# peptide: YRVAAA
# Assays:
# [1] = tested on: soybean seeds; conditions: cited from earlier work
# [2] = tested on: VSR1-NT; assay: Competitive peptide pull-down: elution of aleurain-ssVSD-bound VSR1-NT; set-up: species or system Arabidopsis thaliana; conditions: 2 mM peptide in VSR binding buffer, 4C, 4 hours; T7 immunoblot
# [3] = tested on: VSR1-NT; assay: Competitive peptide pull-down: elution of Cru1-ctVSD-bound VSR1-NT; set-up: species or system Arabidopsis thaliana; conditions: 2 mM peptide in VSR binding buffer, 4C, 4 hours, T7 immunoblot
# [4] = tested on: VSR1-PA; conditions: cited from earlier work
# [5] = tested on: PSV; conditions: C terminus of phaseolin; cited from earlier work
# [6] = tested on: phaseolin; conditions: cited from earlier work
# [7] = tested on: VSR1; conditions: cited from earlier work
# [8] = tested on: VSR1-PA-R95M; assay: Thermal shift assay; format: binding, Arabidopsis thaliana; conditions: 5 mM peptide, 50 μM VSR1-PA-R95M, pH 7.1; n = 3; ns P > 0.05
# [9] = target: B2; assay: thermal shift assay
# [10] = target: B1; assay: differential scanning fluorimetry, isothermal analysis
# [11] = target: B1; assay: as above; remark: listed apart in the source
# [12] = target: B1; assay: crystal structure
molecule,measurement,setting,value
612PLSSILRAFY621,Targeting of GFP to the PSV,[1],sufficient to target GFP to the PSV in soybean seeds
"ADSNPIRPVT [aleurain-ssVSD, reference compound]",Elution of aleurain-ssVSD-bound VSR1-NT,[2],eluted
same,Elution of Cru1-ctVSD-bound VSR1-NT,[3],not by aleurain-ssVSD
same,Interaction of VSR1-PA with ssVSD,[4],VSR1-PA binds to the residues (ADS) preceding the NPIR motif
AFVY,Targeting of seed proteins to the PSV,[5],essential for targeting seed proteins to the PSV
same,Effect of removing the C-terminal residues on phaseolin,[6],abolished aggregation of phaseolin and missorted it to the extracellular space
SYGRPRVAAA [Cru1],Elution of aleurain-ssVSD-bound VSR1-NT,[2],eluted
same,Elution of Cru1-ctVSD-bound VSR1-NT,[3]; listed as Cru1-ctVSD,only eluted by ctVSD of CRU1
same,Binding to VSR1,[7]; earlier studies,VSR1 could bind to the C-terminal peptide of CRU1; also recorded: VSR1 can bind to the C-terminal sequence
same,Calcium dependence of binding to VSR1,[7]; pull-down assay,calcium-dependent
SYGRPRVAAAP [Cru1+P],Elution of aleurain-ssVSD-bound VSR1-NT,[2],not eluted
same,Elution of Cru1-ctVSD-bound VSR1-NT,[3],not by aleurain-ssVSD and Cru1+P
YRVAAA,Change in Tm of VSR1-PA-R95M (in words),[8],no significant change in the Tm of VSR1-PA-R95M
B1,increase of Tm,[9],5.3 °C
B2,Kd,[10],9600 µM
same,Kd,[11],2600 µM
RVAAA [C-terminal pentapeptide (468RVAAA472) of CRU1],binding result,[12],binds
YSDRFV [YSDRFV peptide derived from the ctVSD of VL22],Kd,[10],3200 µM
same,Kd,[11],1000 µM
